Results from article PMC6690024, “Trading amino acids at the aphid–Buchnera symbiotic interface” (Proceedings of the National Academy of Sciences of the …, 2019).

What was measured:
ApNEAAT1 (ACYPI008971) = molecular target: T1, ApNEAAT1 (ACYPI008971) (Acyrthosiphon pisum, UniProt A0A8R1W427); assay: competition with radiolabelled proline uptake in Xenopus oocytes; format: cell-based; conditions: pH 5.5, Na+-free, room temperature, 10 mM competitor
T1 construct: cDNA in pcDNA3.1 or pCS2+, cRNA injected into Xenopus laevis oocytes; SLC36-related AAAP transporter; I161 in TM3
T1 sequence (A0A8R1W427 1-463): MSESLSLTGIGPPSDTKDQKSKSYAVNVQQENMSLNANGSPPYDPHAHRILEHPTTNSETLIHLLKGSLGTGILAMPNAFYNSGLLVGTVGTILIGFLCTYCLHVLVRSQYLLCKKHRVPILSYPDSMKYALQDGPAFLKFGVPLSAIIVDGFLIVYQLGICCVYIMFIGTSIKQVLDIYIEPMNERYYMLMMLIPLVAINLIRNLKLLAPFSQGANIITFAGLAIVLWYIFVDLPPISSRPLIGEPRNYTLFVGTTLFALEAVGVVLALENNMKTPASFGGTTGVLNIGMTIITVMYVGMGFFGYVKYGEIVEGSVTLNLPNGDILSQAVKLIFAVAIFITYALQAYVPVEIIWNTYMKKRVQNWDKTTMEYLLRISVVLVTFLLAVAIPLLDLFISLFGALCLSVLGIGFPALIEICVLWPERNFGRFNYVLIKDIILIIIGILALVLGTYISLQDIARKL

PAT2 (rat slc36a2) [1] = molecular target: T2, PAT2 (rat slc36a2) (Rattus norvegicus, UniProt Q8K415); assay: trans-stimulation of [3H]proline efflux from Xenopus oocytes; format: cell-based; parameters: wild type in pSPORT, cRNA injected into Xenopus laevis oocytes; conditions: 10 mM extracellular alanine, Na+-free, pH 5.5, 10 min
T2 sequence (Q8K415 whole entry): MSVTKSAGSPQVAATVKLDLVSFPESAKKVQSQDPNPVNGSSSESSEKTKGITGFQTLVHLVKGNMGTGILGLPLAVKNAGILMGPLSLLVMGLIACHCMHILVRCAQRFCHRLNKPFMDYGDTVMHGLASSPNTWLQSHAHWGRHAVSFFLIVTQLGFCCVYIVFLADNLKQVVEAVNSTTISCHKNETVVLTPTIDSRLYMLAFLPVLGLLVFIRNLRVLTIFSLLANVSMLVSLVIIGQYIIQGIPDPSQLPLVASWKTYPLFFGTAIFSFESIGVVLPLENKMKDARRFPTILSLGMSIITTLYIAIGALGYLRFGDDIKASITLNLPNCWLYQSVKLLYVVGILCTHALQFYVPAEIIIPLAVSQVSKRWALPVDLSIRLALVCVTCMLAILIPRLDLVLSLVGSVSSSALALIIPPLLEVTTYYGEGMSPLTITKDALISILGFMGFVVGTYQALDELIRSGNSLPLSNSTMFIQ

PAT2 (rat slc36a2) [2] = molecular target: T2, PAT2 (rat slc36a2); conditions: 0.1 to 1 mM proline, Na+-free, pH 5.5, -30 mV; H+ symport
[3] = substrate: O=C(O)[C@@H]1CCCN1; assay: cells, lysate or membranes; conditions: pH 5.5, Na+-free, room temperature, 40 min, labelled compound
[4] = also direct uptake at 10 µM (Figure 4A)

Molecule: C[C@@H](O)[C@H](N)C(=O)O [Thr, threonine]
- % control proline uptake at 10 mM (ApNEAAT1 (ACYPI008971); weak): weaker interactions with amino acids of slightly larger side-chain (e.g., threonine)

Molecule: C[C@H](N)C(=O)O [Ala, alanine]
- % control proline uptake at 10 mM (ApNEAAT1 (ACYPI008971); [4]): smaller dipolar L- and D-amino acids (including proline, alanine, serine, cysteine, and glycine)
- trans-stimulation of [3H]proline efflux from Xenopus oocytes (PAT2 (rat slc36a2) [1]): In PAT2-expressing oocytes, alanine trans-stimulation of [3H]proline efflux was evident

Molecule: N[C@@H](CO)C(=O)O [Ser, serine]
- % control proline uptake at 10 mM (ApNEAAT1 (ACYPI008971); [4]): smaller dipolar L- and D-amino acids (including proline, alanine, serine, cysteine, and glycine)

Molecule: O=C(O)[C@@H]1CCCN1 [Pro, proline]
- two-electrode voltage clamp of Xenopus oocytes, proline-induced inward current (PAT2 (rat slc36a2) [2]): Proline-associated inward current in PAT2-expressing but not ApNEAAT1-expressing or uninjected (control) oocytes

Molecule: N[C@@H](CS)C(=O)O [Cys, cysteine]
- % control proline uptake at 10 mM (ApNEAAT1 (ACYPI008971); also trans-stimulates [3H]proline efflux (Figure 4D)): Cysteine is thus demonstrated to be an ApNEAAT1 substrate by its ability to trans-stimulate

Molecule: O=C(O)[C@H]1CCCN1 [D-proline]
- % control proline uptake at 10 mM (ApNEAAT1 (ACYPI008971)): small NEAAs (such as glycine and L- and D-proline, serine, alanine, and cysteine)

B1: ApNEAAT1 (ACYPI008971) (Acyrthosiphon pisum) (protein)
chain: T1 sequence (A0A8R1W427 1-463)
- Km [3]: 179 ± 33 µM
